The record followed here is publication PMC9072010, “Synthesis and bioevaluation of thienopyrimidines bearing a pyrazoline unit as selective PI3Kα inhibitors” (RSC Advances, 2019).

In one data set the test system is A549 cancer cell lines. The data set can be described thus: MTT antiproliferative assay, A549. In kind it is cell-based, human.
For another data set, the system named is MCF-7 cancer cell lines. Description: MTT antiproliferative assay, MCF-7. In kind it is cell-based, human. For orientation: Tetrazolium assays rely on reduction of a dye to a coloured formazan, in cell work by metabolically active cells.
For a further data set, the system named is HepG2 cancer cell lines. Description: MTT antiproliferative assay, HepG2. Type of data set: cell-based, human.
In a further data set the target is mTOR (Homo sapiens, UniProt P42345). The data set can be described thus: Kinase-Glo Luminescent Kinase Assay, mTOR. Type of data set: biochemical. As to conditions: average of two separate determinations. A general note: Kinase-Glo measures the ATP left after a reaction by luminescence.
For another data set, the target named is PI3Kα (Homo sapiens, UniProt P42336). Description: Kinase-Glo Luminescent Kinase Assay, PI3Kα. In kind it is biochemical. As to conditions: average of two separate determinations. Here is the method:
The experiment was conducted according to the method reported by our research group.[17]

Where [1] appears, read: Homo sapiens, A549, Table 1, average of two separate determinations.
Setting [2] is: Homo sapiens, MCF7, Table 1, average of two separate determinations.
The mark [3] stands for this setting: Homo sapiens, HepG2, Table 1, average of two separate determinations.
[4] abbreviates: Homo sapiens, A549, Table 2, average of two separate determinations.
The mark [5] stands for this setting: Homo sapiens, MCF7, Table 2, average of two separate determinations.
Setting [6] is: Homo sapiens, HepG2, Table 2, average of two separate determinations.
Where [7] appears, read: Table 2, average of two separate determinations.

Sequence of PI3Kα (P42336 whole entry): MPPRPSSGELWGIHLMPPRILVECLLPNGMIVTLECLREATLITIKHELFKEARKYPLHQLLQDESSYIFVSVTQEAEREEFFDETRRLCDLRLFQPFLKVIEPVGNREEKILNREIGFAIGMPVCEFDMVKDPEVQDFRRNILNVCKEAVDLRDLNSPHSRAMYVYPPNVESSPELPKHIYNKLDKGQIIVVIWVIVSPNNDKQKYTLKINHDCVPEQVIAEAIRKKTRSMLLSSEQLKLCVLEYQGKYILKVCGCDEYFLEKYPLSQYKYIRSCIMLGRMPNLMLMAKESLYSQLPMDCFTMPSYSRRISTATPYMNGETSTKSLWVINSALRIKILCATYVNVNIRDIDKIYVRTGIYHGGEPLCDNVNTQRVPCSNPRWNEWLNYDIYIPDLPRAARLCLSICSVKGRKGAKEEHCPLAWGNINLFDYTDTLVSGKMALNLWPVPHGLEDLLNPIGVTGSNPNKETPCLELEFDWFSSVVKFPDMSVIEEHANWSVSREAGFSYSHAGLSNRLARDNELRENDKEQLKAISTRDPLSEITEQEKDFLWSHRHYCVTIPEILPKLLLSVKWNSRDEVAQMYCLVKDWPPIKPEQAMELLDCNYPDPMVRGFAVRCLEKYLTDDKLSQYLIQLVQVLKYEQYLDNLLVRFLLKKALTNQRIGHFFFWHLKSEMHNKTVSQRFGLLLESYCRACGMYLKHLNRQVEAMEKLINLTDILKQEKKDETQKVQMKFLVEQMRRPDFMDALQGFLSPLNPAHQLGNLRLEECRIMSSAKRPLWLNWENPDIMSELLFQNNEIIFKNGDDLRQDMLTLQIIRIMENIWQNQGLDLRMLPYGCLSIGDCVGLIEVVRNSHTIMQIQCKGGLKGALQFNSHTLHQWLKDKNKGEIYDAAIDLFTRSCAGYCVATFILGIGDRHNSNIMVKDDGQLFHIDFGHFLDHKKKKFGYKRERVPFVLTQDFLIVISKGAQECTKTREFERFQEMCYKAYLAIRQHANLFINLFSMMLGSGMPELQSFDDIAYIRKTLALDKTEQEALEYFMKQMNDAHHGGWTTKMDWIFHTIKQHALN
Sequence of PI3Kα (P27986 whole entry partner): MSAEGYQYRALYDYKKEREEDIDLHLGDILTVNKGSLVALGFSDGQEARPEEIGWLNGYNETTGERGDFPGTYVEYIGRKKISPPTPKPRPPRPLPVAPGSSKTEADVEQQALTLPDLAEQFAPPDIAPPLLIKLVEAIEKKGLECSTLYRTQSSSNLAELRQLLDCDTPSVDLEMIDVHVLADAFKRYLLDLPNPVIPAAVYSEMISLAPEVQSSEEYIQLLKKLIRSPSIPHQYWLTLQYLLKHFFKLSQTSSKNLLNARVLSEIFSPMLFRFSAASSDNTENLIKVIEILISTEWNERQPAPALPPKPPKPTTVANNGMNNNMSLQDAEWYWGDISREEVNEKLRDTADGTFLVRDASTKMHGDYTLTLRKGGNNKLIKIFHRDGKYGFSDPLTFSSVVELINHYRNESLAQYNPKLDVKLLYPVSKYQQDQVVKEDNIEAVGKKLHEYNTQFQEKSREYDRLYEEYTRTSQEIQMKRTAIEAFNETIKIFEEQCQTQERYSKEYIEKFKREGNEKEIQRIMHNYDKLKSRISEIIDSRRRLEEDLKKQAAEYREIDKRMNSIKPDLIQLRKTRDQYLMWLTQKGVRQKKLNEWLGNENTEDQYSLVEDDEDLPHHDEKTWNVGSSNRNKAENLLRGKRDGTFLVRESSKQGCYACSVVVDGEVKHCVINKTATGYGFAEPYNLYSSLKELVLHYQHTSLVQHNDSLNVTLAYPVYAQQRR

In general, IC50 refers to the midpoint of a concentration-inhibition curve. Low readings indicate inhibition by little substance, high ones a need for much substance. In general, melting point refers to the temperature of the solid-liquid transition. `c1ccc(-c2ccnn2-c2nc(N3CCOCC3)c3sccc3n2)cc1` [Compound 4a, 4-(2-(5-Phenyl-1H-pyrazol-1-yl)thieno[3,2-d]pyrimidin-4-yl)morpholine] gave a melting point of 243.6 to 244.8 °C. Moreover, the concentration for half-maximal inhibition (IC50) in the data set on A549 cancer cell lines (setting [1]) is greater than 100 µM. In the data set with MCF-7 cancer cell lines (setting [2]), the IC50 is greater than 100 µM. In addition, the IC50 in the data set with HepG2 cancer cell lines (setting [3]) was greater than 100 µM.
For `Cc1ccc(-c2ccnn2-c2nc(N3CCOCC3)c3sccc3n2)cc1` [Compound 4b, 4-(2-(5-(p-Tolyl)-1H-pyrazol-1-yl)thieno[3,2-d]pyrimidin-4-yl)morpholine], the melting point was 166.8 to 171.5 °C. Besides, the IC50 in the data set on A549 cancer cell lines (setting [1]) is greater than 100 µM. Also, in the data set with MCF-7 cancer cell lines (setting [2]), the 50% inhibitory concentration (IC50) was greater than 100 µM. The same molecule gave an IC50 with HepG2 cancer cell lines (setting [3]) greater than 100 µM.
Regarding `Fc1ccc(-c2ccnn2-c2nc(N3CCOCC3)c3sccc3n2)cc1` [Compound 4c, 4-(2-(5-(4-Fluorophenyl)-1H-pyrazol-1-yl)thieno[3,2-d]pyrimidin-4-yl)morpholine], the melting point was in the range of 228 to 231 °C. The molecule further returned an IC50 in the data set on A549 cancer cell lines (setting [1]) greater than 100 µM. For the same molecule, the IC50 in the data set on MCF-7 cancer cell lines (setting [2]) is greater than 100 µM. The same molecule registered an IC50 in the data set on HepG2 cancer cell lines (setting [3]) greater than 100 µM.
The molecule `Clc1ccc(-c2ccnn2-c2nc(N3CCOCC3)c3sccc3n2)cc1` [Compound 4d, 4-(2-(5-(4-Chlorophenyl)-1H-pyrazol-1-yl)thieno[3,2-d]pyrimidin-4-yl)morpholine] returned a melting point of 250 to 251 °C. This molecule also returned an IC50 with A549 cancer cell lines (setting [1]) greater than 100 µM. Also, the IC50 with MCF-7 cancer cell lines (setting [2]) was greater than 100 µM. This molecule had an IC50 in the data set on HepG2 cancer cell lines (setting [3]) greater than 100 µM.
Take `c1ccc(-c2ccnn2-c2nc(N3CCOCC3)c3ccsc3n2)cc1` [Compound 7a, 4-(2-(5-Phenyl-1H-pyrazol-1-yl)thieno[2,3-d]pyrimidin-4-yl)morpholine]: the melting point was 223 to 225 °C. Besides, the IC50 in the data set on A549 cancer cell lines (setting [1]) turned out to be 37.6 ± 1.88 µM. The IC50 in the data set on MCF-7 cancer cell lines (setting [2]) turned out to be 25.3 ± 0.93 µM. In the data set with HepG2 cancer cell lines (setting [3]), this molecule registered an IC50 of 20.2 ± 1.15 µM.
Taken in the same sequence, the figures for `Cc1ccc(-c2ccnn2-c2nc(N3CCOCC3)c3ccsc3n2)cc1` [Compound 7b, 4-(2-(5-(p-Tolyl)-1H-pyrazol-1-yl)thieno[2,3-d]pyrimidin-4-yl)morpholine] were 286 to 289 °C, 35 ± 0.97 µM, 30.9 ± 1.05 µM and 33.9 ± 1.13 µM.
Taken in the same sequence, the figures for `Fc1ccc(-c2ccnn2-c2nc(N3CCOCC3)c3ccsc3n2)cc1` [Compound 7c, 4-(2-(5-(4-Fluorophenyl)-1H-pyrazol-1-yl)thieno[2,3-d]pyrimidin-4-yl)morpholine] were 202 to 205 °C, greater than 100 µM, greater than 100 µM and greater than 100 µM.
With `Clc1ccc(-c2ccnn2-c2nc(N3CCOCC3)c3ccsc3n2)cc1` [Compound 7d, 4-(2-(5-(4-Chlorophenyl)-1H-pyrazol-1-yl)thieno[2,3-d]pyrimidin-4-yl)morpholine], the melting point is 280 to 282 °C. Besides, the IC50 with A549 cancer cell lines (setting [1]) is greater than 100 µM. The molecule also showed an IC50 with MCF-7 cancer cell lines (setting [2]) greater than 100 µM. The molecule further returned an IC50 with HepG2 cancer cell lines (setting [3]) greater than 100 µM.
`COc1ccc(C2CC(c3ccc(Cl)c(Cl)c3)=NN2c2nc(N(C)CCN(C)C)c3ccsc3n2)cc1` (centres unmarked) [Compound 13a, N ^1-(2-(3-(3,4-Dichlorophenyl)-5-(4-methoxyphenyl)-4,5-dihydro-1H-pyrazol-1-yl)thieno[2,3-d]pyrimidin-4-yl)-N^1,N^2,N^2-trimethylethane-1,2-diamine] returned a melting point of 232 to 233 °C.
Turning to `CN(C)CCN(C)c1nc(N2N=C(c3ccc(Cl)c(Cl)c3)CC2c2ccc(Br)cc2)nc2sccc12` (centres unmarked) [Compound 13b, N ^1-(2-(5-(4-Bromophenyl)-3-(3,4-dichlorophenyl)-4,5-dihydro-1H-pyrazol-1-yl)thieno[2,3-d]pyrimidin-4-yl)-N^1,N^2,N^2-trimethylethane-1,2-diamine], the melting point fell in the range of 291 to 294 °C. In addition, in the data set with A549 cancer cell lines (setting [4]), the IC50 came to 17.43 ± 0.13 µM. Also, in the data set on MCF-7 cancer cell lines (setting [5]), the 50% inhibitory concentration (IC50) stood at 12.8 ± 0.23 µM. This molecule also had an IC50 in the data set on HepG2 cancer cell lines (setting [6]) of 12.9 ± 0.64 µM.
For `CN(C)CCN(C)c1nc(N2N=C(c3ccc(F)cc3)CC2c2ccc(F)cc2)nc2sccc12` (centres unmarked) [Compound 13c, N ^1-(2-(3,5-Bis(4-fluorophenyl)-4,5-dihydro-1H-pyrazol-1-yl)thieno[2,3-d]pyrimidin-4-yl)-N^1,N^2,N^2-tri-methylethane-1,2-diamine], the melting point lay in the range of 256 to 257 °C. This molecule yielded an IC50 in the data set on A549 cancer cell lines (setting [4]) of 9.23 ± 0.02 µM. Besides, 6.51 ± 0.31 µM corresponded to half-maximal inhibition in the data set on MCF-7 cancer cell lines (setting [5]) (IC50). The half-inhibitory concentration (IC50) on mTOR is greater than 10 µM. The same molecule returned an IC50 on PI3Kα of 4.62 ± 0.54 µM. The same molecule had an IC50 with HepG2 cancer cell lines (setting [6]) of 6.66 ± 0.13 µM.
As to `CN(C)CCN(C)c1nc(N2N=C(c3ccc(Cl)c(Cl)c3)CC2c2ccc(F)cc2)nc2sccc12` (centres unmarked) [Compound 13d, N ^1-(2-(3-(3,4-Dichlorophenyl)-5-(4-fluorophenyl)-4,5-dihydro-1H-pyrazol-1-yl)thieno[2,3-d]pyrimidin-4-yl)-N^1,N^2,N^2-trimethylethane-1,2-diamine], the melting point is 244 to 247 °C. Half-maximal inhibition in the data set on A549 cancer cell lines (setting [4]) (IC50) required 9.17 ± 0.32 µM. In addition, the IC50 in the data set on MCF-7 cancer cell lines (setting [5]) came out at 6.82 ± 0.17 µM. In addition, inhibition with HepG2 cancer cell lines (setting [6]) was half-maximal at 7.27 ± 0.68 µM (IC50).
In the case of `Cc1ccc(C2CC(c3ccc(Cl)c(Cl)c3)=NN2c2nc(N(C)CCN(C)C)c3ccsc3n2)cc1` (centres unmarked) [Compound 13g, N ^1-(2-(3-(3,4-Dichlorophenyl)-5-(p-tolyl)-4,5-dihydro-1H-pyrazol-1-yl)thieno[2,3-d]pyrimidin-4-yl)-N^1,N^2,N^2-trimethylethane-1,2-diamine], the melting point was in the range of 269 to 270 °C. The molecule also returned an IC50 in the data set on A549 cancer cell lines (setting [4]) of 8.75 ± 0.24 µM. In addition, the IC50 in the data set with MCF-7 cancer cell lines (setting [5]) is 4.98 ± 0.04 µM. Also, the IC50 against mTOR is greater than 10 µM. The IC50 against PI3Kα worked out at 3.31 ± 0.12 µM. For the same molecule, the IC50 with HepG2 cancer cell lines (setting [6]) was found to be 6.96 ± 0.44 µM.
`Cc1ccc(C2CC(c3ccc(Br)cc3)=NN2c2nc(N(C)CCN(C)C)c3ccsc3n2)cc1` (centres unmarked) [Compound 13h, N ^1-(2-(3-(4-Bromophenyl)-5-(p-tolyl)-4,5-dihydro-1H-pyrazol-1-yl)thieno[2,3-d]pyrimidin-4-yl)-N^1,N^2,N^2-trimethylethane-1,2-diamine]: the melting point was in the range of 272 to 273 °C. Besides, half-maximal inhibition with A549 cancer cell lines (setting [4]) (IC50) required 5.43 ± 0.17 µM. The molecule also came in with an IC50 on mTOR greater than 10 µM. In addition, on PI3Kα, the midpoint of inhibition, the IC50, lay at 7.16 ± 0.27 µM. In the data set with HepG2 cancer cell lines (setting [6]), this molecule returned a 50% inhibitory concentration (IC50) of 4.45 ± 0.25 µM.
Consider `CN(C)CCN(C)c1nc(N2N=C(c3ccccc3)CC2c2ccccc2)nc2sccc12` (centres unmarked) [Compound 13i, N ^1-(2-(3,5-Diphenyl-4,5-dihydro-1H-pyrazol-1-yl)thieno[2,3-d]pyrimidin-4-yl)-N^1,N^2,N^2-trimethylethane-1,2-diamine], for which the melting point lay within 225 to 227 °C. This molecule also had an IC50 with A549 cancer cell lines (setting [4]) of 9.43 ± 0.1 µM. Besides, half-maximal inhibition in the data set with MCF-7 cancer cell lines (setting [5]) (IC50) was put at 5.04 ± 0.06 µM. The IC50 in the data set with HepG2 cancer cell lines (setting [6]) came to 6.7 ± 0.14 µM.
For `COc1ccc(C2CC(c3ccc(F)cc3)=NN2c2nc(N(C)CCN(C)C)c3ccsc3n2)cc1` (centres unmarked) [Compound 13j, N ^1-(2-(3-(4-Fluorophenyl)-5-(4-methoxyphenyl)-4,5-dihydro-1H-pyrazol-1-yl)thieno[2,3-d]pyrimidin-4-yl)-N^1,N^2,N^2-trimethylethane-1,2-diamine], the melting point is 286 to 287 °C. This molecule gave a 50% inhibitory concentration (IC50) with HepG2 cancer cell lines (setting [6]) of 83.86 ± 0.17 µM.
As to `CN(C)CCN(C)c1nc(N2N=C(c3ccc(Br)cc3)CC2c2ccc(F)cc2)nc2sccc12` (centres unmarked) [Compound 13k, N ^1-(2-(3-(4-Bromophenyl)-5-(4-fluorophenyl)-4,5-dihydro-1H-pyrazol-1-yl)thieno[2,3-d]pyrimidin-4-yl)-N^1,N^2,N^2-trimethylethane-1,2-diamine], the melting point lay within 291 to 292 °C. Moreover, in the data set on A549 cancer cell lines (setting [4]), the IC50 stood at 22.7 ± 0.35 µM. Further, in the data set with MCF-7 cancer cell lines (setting [5]), the IC50 is 18.39 ± 0.18 µM. The molecule also returned an IC50 in the data set on HepG2 cancer cell lines (setting [6]) of 10.9 ± 0.2 µM.
Taken in the same sequence, the figures for `CN(C)CCN(C)c1nc(N2N=C(c3ccc(Br)cc3)CC2c2ccccc2)nc2sccc12` (centres unmarked) [Compound 13l, N ^1-(2-(3-(4-Bromophenyl)-5-phenyl-4,5-dihydro-1H-pyrazol-1-yl)thieno[2,3-d]pyrimidin-4-yl)-N^1,N^2,N^2-trimethylethane-1,2-diamine] were 261 to 262 °C, 22.95 ± 0.15 µM, 17.2 ± 0.48 µM and 15.8 ± 1.23 µM.
As for `CS(=O)(=O)N1CCN(Cc2cc3nc(-c4cccc5[nH]ncc45)nc(N4CCOCC4)c3s2)CC1` [GDC-0941, reference compound], the IC50 in the data set with A549 cancer cell lines (setting [1]) is 6.99 ± 0.21 µM; with MCF-7 cancer cell lines (setting [2]), 0.07 ± 0.03 µM; with MCF-7 cancer cell lines (setting [5]), 0.2 ± 0.08 µM; in the data set on HepG2 cancer cell lines (setting [3]) it was 0.2 ± 0.08 µM; in the data set on HepG2 cancer cell lines (setting [6]), 0.07 ± 0.03 µM.
Turning to “N ^1-(2-(3-(3,4-Dichlorophenyl)-3-phenyl-4,5-dihydro-1H-pyrazol-1-yl)thieno[2,3-d]pyrimidine-4-yl)-N^1, N^2,N^2-trimethylethane-1,2-diamine [Compound 13e]”, the IC50 in the data set with A549 cancer cell lines (setting [7]) stood at 13.4 ± 0.29 µM; in the data set with MCF-7 cancer cell lines (setting [7]) it was 10.5 ± 0.54 µM; with HepG2 cancer cell lines (setting [7]), 8.05 ± 0.05 µM.
